Reference: patent US20160144021A1, “Vaccine Composition And Method Of Use” (MEDIMMUNE, LLC, priority 2013, published 2016)

Assays:
[1] = tested on: RSV F peptide pool of overlapping 15-mers; experiment: F-specific IFNγ ELISPOT of PBMC, cynomolgus monkeys; type: in vivo
Protocol: To determine whether immunization with sF formulated with GLA-SE enhanced an F-specific T cell response, F-specific IFNγ T cell responses were measured by ELISPOT following restimulation with a peptide pool of overlapping 15-mers derived from the RSV F protein sequence. […] While the number of T cells in the sF+GLA-SE group decreased over time, one animal still met the definition of a positive responder out to day 169. At Day 169, 5 months post vaccination, a booster vaccination was given. […] In comparison, 0 of 4 monkeys in the sF alone group responded with an increase in IFNγ secreting F-specific T cells (mean 5 SFC/million).

[2] = tested on: RSV-F derived MHC II (I-Ed)-binding peptides; experiment: F-specific CD4 T-cell cytokine profiling of restimulated splenocytes, naive BALB/c mice; type: in vivo; conditions: splenocytes 4 days post challenge, 72 h restimulation
[3] = tested on: RSV A2; experiment: RSV A2-GFP microneutralization of sera, 1x RSV seropositive BALB/c mice; type: in vivo
Protocol: Naïve female BALB/c mice were divided into designated vaccine cohorts of 8-9 mice each and dosed at Day 0. […] Successful seroconversion was confirmed by F-specific ELISA endpoint titers on Day 0. Groups of 9 mice were inoculated intramuscularly (IM) with the vaccine formulations at Day 0. 3 mice per group were evaluated for cellular immune responses at 10 days post […], while the remaining 5-6 animals per group were followed for serum antibody responses through Day 73.
Serology readouts were made at Days 0, 14, 28, 42, 56, and 73 for each group. Animals were lightly anesthetized with isoflurane and bled intraorbitally. Serum was separated and stored at −20° C. and thawed for testing. Total anti-F IgG were measured at each timepoint, with anti-F IgG1 and anti-F IgG2a ELISA endpoint dilution titers measured at Day 0 and Day 42. RSV neutralization titer was determined by a RSV A2-GFP microneutralization assay. The polyclonal nature of the anti-F IgG response was evaluated on Day 42 by competition ELISA with site-specific monoclonal antibodies to RSV-F. Anti-F IgA endpoint dilution titers were measured at Day 14 for each group.

[4] = tested on: RSV A2; experiment: RSV A2-GFP neutralizing Ab titers of sera, cynomolgus monkeys; type: in vivo
Description: At Day 169, 5 months post vaccination, the booster vaccination was given.

[5] = tested on: IFNγ, IL-5, IL-13, eotaxin, RANTES; experiment: Lung cytokines 4 days post challenge, highly seropositive BALB/c mice
Protocol: One hundred three female BALB/c mice (Charles River), ages 6-8 weeks old, were divided into 13 groups. Group 1 had 7 mice and groups 2 through 13 had 8 mice. Following anaesthetization groups 1 through 12 were dosed with 1×10^6 plaque forming units (PFU) in 100 μL of live RSV via an intranasal (IN) route on Day 0 and Day 35. Group 13 was not exposed to RSV. On Day 56, groups 1 through 11 were immunized with placebo (PBS) or vaccine article via an intramuscular (IM) route following anesthesia with isoflurane. The vaccine articles were formulated in a total of 100 μL with 50 μL given in each hind limb. Group 12 was anesthetized with isoflurane and immunized with 1×10^6 PFU in 100 μL of live RSV via an IN route. […] Sera were obtained from retro orbital blood collection at study days 0, 28, 56 70 and 84, separated from whole blood and stored at −20° C. until evaluated. Spleens from 4 animals in each group were harvested for T cell assays on Day 67, 11 days post immunization, or at day 88, 4 days post challenge. Lung cytokines quantified at 4 days after challenge in individual lung homogenates by luminex assay (Milipore).
Mouse cytokine/chemokine multiplex kits designed to include IFNgamma, IL-5, IL-13, IL-17 and eotaxin (Millipore, Billerica, Mass.) were used to evaluate lung homogenates. Lung homogenates were clarified by centrifugation prior to use. Assays were performed following manufacturer's instructions and plates were analyzed on a Luminex reader (Bio-Rad, Hercules, Calif.).

[6] = tested on: RSV A2; experiment: Serum RSV neutralizing titers, naive cotton rats; type: in vivo; conditions: day 42, naive cotton rats
Protocol: RSV neutralizing antibody titers in heat-inactivated mouse sera at indicated timepoints were measured using a GFP-tagged RSV A2 micro-neutralization assay as previously described (Bernstein D I, et al. (2012) Phase 1 study of the safety and immunogenicity of a live, attenuated respiratory syncytial virus and parainfluenza virus type 3 vaccine in seronegative children. Pediatr Infect Dis J 31: 109-114). Briefly, confluent Vero cell monolayers were infected with 500 PFU of virus alone or virus pre-mixed with serially diluted serum samples, then incubated at 33° C. and 5% CO2 for 22 hrs. Plates were washed of free virus and GFP fluorescent viral foci were enumerated using the IsoCyte image scanner (Blueshift, Sunnyvale, Calif.).
Cotton rats are a well established model for RSV studies and are often used in the preclinical evaluation of potential RSV vaccine candidates. To confirm the immune profile of GLA-SE adjuvanted RSV sF vaccine in a second RSV challenge model, individual cotton rats were administered the same RSV sF subunit vaccines at similar doses used for mice. RSV sF at 0.3 μg without adjuvant or adjuvanted with GLA, SE, GLA-SE, or alum was given intramuscularly at days 0 and 22.

[7] = tested on: F-derived CD8 peptide (KYKNAVTEL); experiment: CD8 IFNγ ELISPOT of splenocytes, 1x RSV seropositive BALB/c mice; type: in vivo
Protocol: Systemic cellular immune responses to vaccination were evaluated in representative animals at Day 10 post vaccination. Additional representative animals were recalled with a viral challenge at Day 69 and evaluated for long-term cellular immune responses at Day 73, 4 days post viral challenge. For each of the groups, 3-5 individual splenocyte samples were prepared. CD4 T-cell readouts were assessed by multiplexed cytokine analysis of supernatant levels of a panel of secreted cytokines (including IFNγ, IL-5, IL-10, IL-13, and IL-17) following a 72-hour restimulation period with RSV sF. CD8 T-cell readouts were assessed by 2 methods: ELISPOT counts of IFNγ-secreting cells following a 36-48 hour restimulation period with an F-derived CD8 peptide ([…] aa 85-93) (SEQ ID NO: 12) and intracellular staining and quantification of the percentage of F-specific polyfunctional (IFNγ+ TNFα+IL-2+) CD8 T cells following a 5-hour restimulation period with the F-derived CD8 peptide.

[8] = tested on: RSV-F MHC I and MHC II restricted peptides; experiment: IFNγ ELISPOT of splenocytes, naive BALB/c mice; type: in vivo; conditions: Day 32, 4 days post challenge, MHC I F peptide

With “RSV sF: RSV soluble F protein, amino acids 1-524 of the RSV A2 F sequence lacking the transmembrane domain, given without adjuvant” the “mean F-specific IFNγ ELISPOT response” value ([1]; Day 42) was 8 SFC/million PBMC, the “animals with positive F-specific IFNγ ELISPOT response” value ([1]; Day 42, ≥50 SFC/million increase and 4-fold rise from day −7) was 0 of the 4 and the “animals with positive F-specific IFNγ ELISPOT response” value ([1]; Day 183) was 0 of 4. The “mean F-specific IFNγ ELISPOT response” value ([1]; Day 183) was 5 SFC/million, the “F-specific CD4 T-cell cytokine production profile” value [2] was “Th2-type response characterized by IL-5 and IL-13 cytokines” and the “mean RSV neutralizing titers” value ([3]; Day 14, dose 0.4 μg RSV sF assumed from order) was 8.32 log2. For the same substance, the “mean RSV neutralizing titers” value ([3]; Day 14, dose 10 μg RSV sF assumed from order) was 8.66 log2, the “mean RSV neutralizing titers” value ([3]; Day 14, second value, dose 2 μg RSV sF assumed from order) was 7.82 log2 and the “animals with 4-fold boost in neutralizing titers from Day −7 levels” value ([4]; Day 42) was 1/4. The “geometric mean RSV neutralizing Ab titer” value ([4]; Day 42) was 3.52±1.14 log 2, the “RSV neutralizing Ab titers” value ([4]; Day 169) was 2.97 log 2 and the “geomean neutralizing Ab titers” value ([4]; Day 183, 14 days following the third immunization) was 4.46±1.79 log 2. The “lung RANTES following RSVA2 exposure” value ([5]; 4 days post challenge) was “increased with increasing amounts of RSV sF”, the “lung eotaxin and IL-13 upon RSV challenge” value ([5]; 4 days post challenge) was “did not induce eotaxin or IL-13 levels higher than any of the other groups” and the “lung IL-5 in response to RSV challenge” value ([5]; day 88, 4 days post challenge) was “did not set up mice to induce IL-5”. The “RSV neutralizing titers (mean)” value [6] was 4.3 log2, the “F-specific CD8 IFNγ ELISPOT response” value ([7]; Day 10 post vaccination, highest dose (10 μg) RSV sF) was 224 SFU/million and the “F-specific CD8 IFNγ ELISPOT response (mean)” value ([7]; Day 10 post vaccination, range across RSV sF doses 0.4-10 μg) was 72-224 SFU/million. The “recall F-specific CD8 IFNγ ELISPOT response (means)” value ([7]; Day 73, 4 days post RSV challenge, range across RSV sF doses) was 62-243 SFU/million and the “F-specific CD8 IFNγ ELISPOT” value [8] was ~30 spot forming units (SFU)/million cells.
